# Marks after values point to notes of the source that are not given here.
# Experiment: log P by HPLC on reversed-phase column (C 18), acidic range
# Format: physicochemical
# Details: not given
# Method: Temperature: 43° C. […] The log P values given in Table 3 were determined in accordance with EEC Directive 79/831 Annex V.A8 by HPLC (High Performance Liquid Chromatography) on a reversed-phase column (C 18). Temperature: 43° C. […] The log P values given in Tables 4 were determined in accordance with EEC Directive 79/831 Annex V.A8 by HPLC (High Performance Liquid Chromatography) on a reversed-phase column (C 18). Temperature: 43° C.
row,Compound,logP
1,CCn1ncc(C(=O)c2ccc(S(C)(=O)=O)cc2Cn2nc(SC)n(C)c2=O)c1O [Example 4],logP = 1.24^a)
2,CCn1ncc(C(=O)c2ccc(C(F)(F)F)cc2Cn2nc(OC)n(C3CC3)c2=O)c1O [Example 7],(IA)logP = 2.28^a)
3,COc1nn(Cc2cc(F)ccc2C(=O)c2c(C)nn(C)c2O)c(=O)n1C1CC1 [Example 10],(IA)logP = 1.50^a)
4,CCn1ncc(C(=O)c2ccccc2-n2nc(C(F)(F)F)n(C)c2=O)c1O [Example 15],logP = 1.95^a)
5,CCn1ncc(C(=O)c2ccc(Cl)cc2-n2nc(C(F)(F)F)n(C)c2=O)c1O [Example 16],logP = 2.47^a)
6,CCn1ncc(C(=O)c2ccc(Cl)c(Cn3nc(C(F)(F)F)n(C)c3=O)c2Cl)c1O [Example 17],logP = 2.30^a)
7,CCn1ncc(C(=O)c2ccc(Cl)c(Cn3nc(SC)n(C)c3=O)c2Cl)c1O [Example 18],logP = 1.91^a)
8,CCn1ncc(C(=O)c2ccc(Cl)c(Cn3nc(OCC(F)(F)F)n(C)c3=O)c2Cl)c1O [Example 23],logP = 2.33^a)
9,CCn1ncc(C(=O)c2ccc(Cl)c(Cn3nc(Br)n(C)c3=O)c2Cl)c1O [Example 24],logP = 1.81^a)
10,CCn1ncc(C(=O)c2ccc(Cl)c(Cn3nc(C4CC4)n(C)c3=O)c2Cl)c1O [Example 26],(IB)logP = 1.82^a)
11,CCn1ncc(C(=O)c2ccc(Cl)c(Cn3nc(N(C)C)n(C)c3=O)c2Cl)c1O [Example 28],logP = 1.77^a)
12,CCn1ncc(C(=O)c2ccc(Cl)c(Cn3nc(C)n(C)c3=O)c2Cl)c1O [Example 29],logP = 1.38^a)
13,CCn1ncc(C(=O)c2ccc(Cl)c(Cn3nc4n(c3=O)CCCC4)c2Cl)c1O [Example 30],logP = 1.55^a)
14,CCOc1nn(Cc2c(Cl)ccc(C(=O)c3cnn(CC)c3O)c2Cl)c(=O)n1C1CC1 [Example 32],(IB)logP = 2.31^a)
15,CCn1ncc(C(=O)c2ccc(Cl)c(Cn3nc(OC(C)C)n(C4CC4)c3=O)c2Cl)c1O [Example 33],(IB)logP = 4.64^a)
16,CCn1ncc(C(=O)c2ccc(Cl)c(Cn3nc(OCC(F)(F)F)n(C4CC4)c3=O)c2Cl)c1O [Example 34],(IB)logP = 2.65^a)
17,CCn1ncc(C(=O)c2ccc(Cl)c(Cn3nc(C)n(C4CC4)c3=O)c2Cl)c1O [Example 36],(IB)logP = 1.64^a)

row,Compound,logP
1,CCn1ncc(C(=O)c2ccc(Cl)c(Cn3nc(N(C)C)n(C4CC4)c3=O)c2Cl)c1O [Example 37],(IB)logP = 2.04^a)
2,CCOn1c(CC)nn(Cc2c(Cl)ccc(C(=O)c3cnn(CC)c3O)c2Cl)c1=O [Example 38],(IB)logP = 2.16^a)
3,CCn1nc(C)c(C(=O)c2ccc(Cl)c(Cn3nc(SC)n(C)c3=O)c2Cl)c1O [Example 41],logP = 1.91^a)
4,CCOc1nn(Cc2c(Cl)ccc(C(=O)c3c(C)nn(CC)c3O)c2Cl)c(=O)n1C [Example 42],logP = 2.02^a)
5,CCn1nc(C)c(C(=O)c2ccc(Cl)c(Cn3nc(Br)n(C)c3=O)c2Cl)c1O [Example 44],logP = 1.81^a)
6,COc1nn(Cc2c(Cl)ccc(C(=O)c3c(C)nn(C(C)(C)C)c3O)c2Cl)c(=O)n1C [Example 48],logP = 3.02^a)
7,Cc1nn(C(C)(C)C)c(O)c1C(=O)c1ccc(Cl)c(Cn2nc(Br)n(C)c2=O)c1Cl [Example 49],logP = 3.19^a)
8,COc1nn(Cc2c(Cl)ccc(C(=O)c3cnn(C)c3O)c2Cl)c(=O)n1C [Example 57],logP = 1.48^a)
9,CCn1ncc(C(=O)c2ccc(Cn3nc(SC)n(C)c3=O)c(OC)c2[N+](=O)[O-])c1O [Example 60],logP = 1.92^a)
10,CCn1ncc(C(=O)c2ccc(C(F)(F)F)cc2Cn2nc(COC)n(C)c2=O)c1O [Example 65],logP =1.98^a)
11,CCn1ncc(C(=O)c2ccc(C(F)(F)F)cc2Cn2nc(OC)n(C)c2=O)c1O [Example 66],logP = 2.27^a)
12,CCn1ncc(C(=O)c2ccc(S(C)(=O)=O)cc2Cn2nc(C(F)(F)F)n(C)c2=O)c1O [Example 67],logP = 1.60^a)
13,CCn1ncc(C(=O)c2ccc(F)c(Cn3nc(N(C)C)n(C)c3=O)c2Cl)c1O [Example 72],logP = 1.62^a)
14,CCn1ncc(C(=O)c2ccc(Cl)c(CN3CCN(C)C3=O)c2Cl)c1O [ID-1],logP = 1.64^a)
15,CN1CCCN(Cc2c(Cl)ccc(C(=O)c3cnn(C)c3O)c2Cl)C1=O [ID-3],logP = 1.52^a)
16,Cc1nn(C)c(O)c1C(=O)c1ccc(Cl)c(CN2CCCN(C)C2=O)c1Cl [ID-4],logP = 1.50^a)
17,CCn1nc(C)c(C(=O)c2ccc(Cl)c(CN3CCCN(C)C3=O)c2Cl)c1O [ID-5],logP = 1.72^a)

# The next lines start with the values.
row,logP,Compound
1,logP = 2.58^a),CCSc1nn(Cc2cc(C(F)(F)F)ccc2C(=O)c2cnn(CC)c2O)c(=O)n1C [Example 5]
2,logP = 2.90^a),CCn1ncc(C(=O)c2ccc(C(F)(F)F)cc2Cn2nc(SC(C)C)n(C)c2=O)c1O [Example 6]
3,logP = 1.61^a),CCn1ncc(C(=O)c2ccc(F)cc2Cn2nc(N(C)C)n(C)c2=O)c1O [Example 8]
4,logP = 1.32^a),Cc1nn(C)c(O)c1C(=O)c1ccc(F)cc1Cn1nc(N(C)C)n(C)c1=O [Example 9]
5,(IA)logP = 1.80^a),CCOc1nn(Cc2cc(F)ccc2C(=O)c2c(C)nn(C)c2O)c(=O)n1C1CC1 [Example 11]
6,(IA)logP = 2.69^a),C=CCSc1nn(Cc2cc(Br)ccc2C(=O)c2cnn(CC)c2O)c(=O)n1C [Example 12]
7,logP = 2.83^a),CCn1ncc(C(=O)c2cc(-n3nc(C(F)(F)F)n(C)c3=O)ccc2C(F)(F)F)c1O [Example 13]
8,logP = 2.01^a),CCOc1nn(Cc2c(Cl)ccc(C(=O)c3cnn(CC)c3O)c2Cl)c(=O)n1C [Example 19]
9,(IB)logP = 2.14^a),CCn1ncc(C(=O)c2ccc(Cl)c(Cn3nc(C4CC4)n(C4CC4)c3=O)c2Cl)c1O [Example 20]
10,logP = 1.69^a),CCn1ncc(C(=O)c2ccc(Cl)c(Cn3nc(OC)n(C)c3=O)c2Cl)c1O [Example 21]
11,logP = 2.31^a),CCn1ncc(C(=O)c2ccc(Cl)c(Cn3nc(OC(C)C)n(C)c3=O)c2Cl)c1O [Example 22]
12,logP = 1.28^a),CCn1ncc(C(=O)c2ccc(Cl)c(Cn3ncn(C)c3=O)c2Cl)c1O [Example 25]
13,logP = 2.55^a),CCn1ncc(C(=O)c2ccc(Br)cc2-n2nc(C(F)(F)F)n(C)c2=O)c1O [Example 27]
14,(IB)logP = 1.99^a),CCn1ncc(C(=O)c2ccc(Cl)c(Cn3nc(OC)n(C4CC4)c3=O)c2Cl)c1O [Example 31]
15,(IB)logP = 2.27^a),CCn1ncc(C(=O)c2ccc(Cl)c(Cn3nc(SC)n(C4CC4)c3=O)c2Cl)c1O [Example 35]
16,logP = 1.52^a),Cc1nn(C)c(O)c1C(=O)c1ccc(Cl)c(Cn2nc(Br)n(C)c2=O)c1Cl [Example 39]
17,logP = 1.53^a),Cn1ncc(C(=O)c2ccc(Cl)c(Cn3nc(Br)n(C)c3=O)c2Cl)c1O [Example 40]
18,logP = 1.71^a),CCn1nc(C)c(C(=O)c2ccc(Cl)c(Cn3nc(OC)n(C)c3=O)c2Cl)c1O [Example 43]
19,logP = 1.40^a),CCn1nc(C)c(C(=O)c2ccc(Cl)c(Cn3nc(C)n(C)c3=O)c2Cl)c1O [Example 45]

row,logP,Compound
1,logP = 3.30^a),CSc1nn(Cc2c(Cl)ccc(C(=O)c3c(C)nn(C(C)(C)C)c3O)c2Cl)c(=O)n1C [Example 46]
2,logP = 3.44^a),CCOc1nn(Cc2c(Cl)ccc(C(=O)c3c(C)nn(C(C)(C)C)c3O)c2Cl)c(=O)n1C [Example 47]
3,logP = 2.53^a),Cc1nn(C(C)(C)C)c(O)c1C(=O)c1ccc(Cl)c(Cn2nc(C)n(C)c2=O)c1Cl [Example 50]
4,logP = 1.66^a),CSc1nn(Cc2c(Cl)ccc(C(=O)c3c(C)nn(C)c3O)c2Cl)c(=O)n1C [Example 51]
5,logP = 1.76^a),CCOc1nn(Cc2c(Cl)ccc(C(=O)c3c(C)nn(C)c3O)c2Cl)c(=O)n1C [Example 52]
6,logP = 1.48^a),COc1nn(Cc2c(Cl)ccc(C(=O)c3c(C)nn(C)c3O)c2Cl)c(=O)n1C [Example 53]
7,logP = 1.20^a),Cc1nn(C)c(O)c1C(=O)c1ccc(Cl)c(Cn2nc(C)n(C)c2=O)c1Cl [Example 54]
8,logP = 1.67^a),CSc1nn(Cc2c(Cl)ccc(C(=O)c3cnn(C)c3O)c2Cl)c(=O)n1C [Example 55]
9,logP = 1.77^a),CCOc1nn(Cc2c(Cl)ccc(C(=O)c3cnn(C)c3O)c2Cl)c(=O)n1C [Example 56]
10,logP = 1.19^a),Cc1nn(Cc2c(Cl)ccc(C(=O)c3cnn(C)c3O)c2Cl)c(=O)n1C [Example 58]
11,logP = 1.99^a),CCOc1nn(Cc2ccc(C(=O)c3cnn(CC)c3O)c([N+](=O)[O-])c2OC)c(=O)n1C [Example 59]
12,logP = 1.99^a),CCn1ncc(C(=O)c2ccc(Cl)c(Cn3nc(SC)n(C)c3=O)c2F)c1O [Example 62]
13,logP = 1.80^a),CCn1ncc(C(=O)c2ccc(C(F)(F)F)cc2Cn2nc(C)n(C)c2=O)c1O [Example 64]
14,logP = 1.73^a),CCn1ncc(C(=O)c2ccc(S(C)(=O)=O)cc2Cn2nc(OCC(F)(F)F)n(C)c2=O)c1O [Example 68]
15,logP = 1.76^a),CCn1ncc(C(=O)c2ccc(F)c(Cn3nc(C)n(C)c3=O)c2Cl)c1O [Example 69]
16,logP = 1.76^a),CCn1ncc(C(=O)c2ccc(F)c(Cn3nc(SC)n(C)c3=O)c2Cl)c1O [Example 70]
17,logP = 1.55^a),CCn1ncc(C(=O)c2ccc(F)c(Cn3nc(OC)n(C)c3=O)c2Cl)c1O [Example 71]
18,logP = 1.77^a),CCn1ncc(C(=O)c2ccc(Cl)c(CN3CCCN(C)C3=O)c2Cl)c1O [ID-2]

# Same assay, conditions: reversed-phase HPLC column (C 18); pH=2
row,Compound,chromatographic logP
1,"CCn1ncc(C(=O)c2ccc(-n3nc(C(F)(F)F)n(C)c3=O)cc2Cl)c1O [Example 1, 4-methyl-5-trifluoromethyl-2-[3-chloro-4-(1-ethyl-5-hydroxy-pyrazol-4-yl-carbonyl)-phenyl]-2,4-dihydro-3H-1,2,4-triazol-3-one]",2.63

# Reference: patent US7279444B2, “Substituted benzoylpyrazoles” (Bayer CropScience GmbH, priority 1999, dated 2007)
